{
  "source": "patent US9260488B2",
  "about": "“Replacement therapy for dental caries” (Oragenics, Inc., priority 2012, dated 2016)",
  "assay_in_all_cases": "Minimum inhibitory concentration (CLSI M07-8A, modified)",
  "format_in_all_cases": "cell-based",
  "key": {"[1]": {"test_system": "Staphylococcus aureus FA1", "details": "peptide purified to about 90%; THyex medium; 24 hour incubation", "description": "(§1) Wild-type mutacin 1140, mutacin 1140 with a F1I mutation, mutacin 1140 with a W4A mutation, and mutacin 1140 with a R13D mutation was purified to about 90% purity (measured via HPLC). The minimum inhibitory concentration (MIC) of MU1140 and variants of MU1140 was determined against several bacteria. The MIC is the lowest concentration of MU1140 that will inhibit the visible growth of a microorganism after 24 hour incubation. A lower MIC is an indication of greater inhibitory activity. Preparation of the antimicrobial agent and bacterial inoculum for minimum inhibitory concentrations (MICs) was performed by following the method described in Clinical Laboratory Standard Institute (CLSI) M07-8A with some minor modifications. Streptococcus mutans UA159 was tested overnight in a shaking incubator to maintain uniform dispersion of the bacteria. Clostridium difficile UK1 was tested in an anaerobic chamber at 37° C. The medium used was THyex."}, "[2]": {"test_system": "Streptococcus pneumonia FA1", "details": "peptide purified to about 90%; THyex medium; 24 hour incubation", "description": "as §1"}, "[3]": {"test_system": "Micrococcus luteus ATCC10240", "details": "peptide purified to about 90%; THyex medium; 24 hour incubation", "description": "as §1"}, "[4]": {"test_system": "Streptococcus mutans UA159", "details": "peptide purified to about 90%; THyex medium; 24 hour incubation; shaking incubator overnight", "description": "as §1"}, "[5]": {"test_system": "Clostridium difficile UK1", "details": "peptide purified to about 90%; THyex medium; 24 hour incubation; anaerobic chamber at 37° C.", "description": "as §1"}},
  "data": [
    {"substance": "Mu1140 Wild-type: wild-type lantibiotic mutacin MU1140 (SEQ ID NO:1) produced by S. mutans strain JH1140 (ATCC 55676)", "values": [
      {"measurement": "MIC Staphylococcus aureus FA1", "setting": "[1]", "result": 16},
      {"measurement": "MIC Streptococcus pneumonia FA1", "setting": "[2]", "result": 0.5},
      {"measurement": "MIC Micrococcus luteus ATCC10240", "setting": "[3]", "result": 0.0625},
      {"measurement": "MIC Streptococcus mutans UA159", "setting": "[4]", "result": 2},
      {"measurement": "MIC Clostridium difficile UK1", "setting": "[5]", "result": 16}
    ]}
  ]
}
